Laboratory results from patent US7638525B2 (Janssen Pharmaceutica N.V., priority 2004, dated 2009).

Tested on: T47D human breast cancer cells
Test: In vitro test: alkaline phosphatase assay in T47D human breast cancer cells
Format: cell-based
Settings: alkaline phosphatase luminescence after 24 h with compound, test concentration not given
Protocol: T47D human breast cancer cells are grown in RPMI medium without phenol red (Invitrogen) containing 10% (v/v) heat-inactivated fetal bovine serum (FBS; Hyclone), 1% (v/v) penicillin-streptomycin (Invitrogen), 1% (w/v) glutamine (Invitrogen), and […] (Sigma). Incubation conditions are 37° C. in a humidified 5% (v/v) carbon dioxide environment. For assay, the cells are plated in 96-well tissue culture plates at 10,000 cells per well in assay medium [RPMI medium without phenol red (Invitrogen) containing 5% (v/v) charcoal-treated FBS (Hyclone) and 1% (v/v) penicillin-streptomycin (Invitrogen)]. Two days later, the medium is decanted and the compounds are added in a final concentration of 0.1% (v/v) dimethyl sulfoxide in fresh assay medium. Twenty-four hours later, an alkaline phosphatase assay is performed using a SEAP kit (BD Biosciences Clontech, Palo Alto, Calif.). Briefly, the medium is decanted and the cells are fixed for 30 minutes at room temperature with 5% (v/v) formalin (Sigma). The cells are washed once with room temperature Hank's buffered saline solution (Invitrogen). Equal volumes (0.05 mL) of 1× Dilution Buffer, Assay Buffer and 1:20 substrate/enhancer mixture are added. After 1-hour incubation at room temperature in the dark, the lysate is transferred to a white 96-well plate (Dynex) and luminescence is read using a LuminoSkan Ascent (Thermo Electron, Woburn, Mass.).

| Compound | % inhibition |
| --- | --- |
| O=C(c1ccc(Cl)c(Cl)c1)c1cc(-c2ccncc2)c(N2CCC3(CC2)OCCO3)s1 [Example 1, (3,4-Dichloro-phenyl)-[5-(1,4-dioxa-8-aza-spiro[4.5]-dec-8-yl)-4-pyridin-4-yl-thiophen-2-yl]-methanon] | 6% |
| O=C(c1ccc(F)cc1)c1cc(-c2ccncc2)c(N2CCC3(CC2)OCCO3)s1 [Example 2, [5-(1,4-Dioxa-8-aza-spiro[4.5]-dec-8-yl)-4-pyridin-4-yl-thiophen-2-yl]-(4-fluoro-phenyl)-methanone] | 15% |
| O=C(c1ccc(Cl)cc1)c1cc(-c2ccncc2)c(N2CCC3(CC2)OCCO3)s1 [Example 3, (4-Chloro-phenyl)-[5-(1 4-dioxa-8-aza-spiro[4.5]-dec-8-yl)-4-pyridin-4-yl-thiophen-2-yl]-methanone] | 27% |
| O=C(c1ccc([N+](=O)[O-])cc1)c1cc(-c2ccncc2)c(N2CCC3(CC2)OCCO3)s1 [Example 4, [5-(1 4-Dioxa-8-aza-spiro[4.5]-dec-8-yl)-4-pyridin-4-yl-thiophen-2-yl]-(4-nitro-phenyl)-methanone] | 0% |
| CCC(=O)c1cc(-c2ccncc2)c(N2CCC3(CC2)OCCO3)s1 [Example 5, 1-[5-(1,4-Dioxa-8-aza-spiro[4.5]-dec-8-yl)-4-pyridin-4-yl-thiophen-2-yl]-1-one] | 0% |
| O=C(c1ccccc1)c1cc(-c2ccncc2)c(N2CCC3(CC2)OCCO3)s1 [Example 6, [5-(1,4-Dioxa-8-aza-spiro[4.5]-dec-8-yl)-4-pyridin-4-yl-thiophen-2-yl]-phenyl-methanone] | 34% |
| COc1cccc(C(=O)c2cc(-c3ccncc3)c(N3CCC4(CC3)OCCO4)s2)c1 [Example 7, [5-(1,4-Dioxa-8-aza-spiro[4.5]-dec-8-yl)-4-pyridin-4-yl-thiophen-2-yl-](3-methoxy-phenyl)-methanone] | 42% |
| O=C(c1cc(C(F)(F)F)cc(C(F)(F)F)c1)c1cc(-c2ccncc2)c(N2CCC3(CC2)OCCO3)s1 [Example 8, (3,5-Bis-trifluoromethyl-phenyl)-[5-(1 4-dioxa-8-aza-spiro[4.5]-dec-8-yl)-4-pyridin-4-yl-thiophen-2-yl]-methanone] | 0% |
| COc1ccccc1C(=O)c1cc(-c2ccncc2)c(N2CCC3(CC2)OCCO3)s1 [Example 9, [5-(1,4-Dioxa-8-aza-spiro[4.5]-dec-8-yl)-4-pyridin-4-yl-thiophen-2-yl]-(2-methoxy-phenyl)-methanone] | 30% |
| O=C(c1cccc(Br)c1)c1cc(-c2ccncc2)c(N2CCC3(CC2)OCCO3)s1 [Example 10, (3-Bromo-phenyl)-[5-(1,4-dioxa-8-aza-spiro[4.5]-dec-8-yl)-4-pyridin-4-yl-thiophen-2-yl]-methanone] | 42% |
| O=C1CCN(c2sc(C(=O)c3ccccc3)cc2-c2ccncc2)CC1 [Example 11, 1-(5-Benzoyl-3-pyridin-4-yl-thiophen-2-yl)-piperidin-4-one] | 35% |
| COc1cccc(C(=O)c2cc(-c3ccncc3)c(N3CCC(=O)CC3)s2)c1 [Example 12, 1-[5-(3-Methoxy-benzoyl)-3-pyridin-4-yl-thiophen-2-yl]-piperidin-4-one] | 24% |
| O=C1CCN(c2sc(C(=O)c3ccc(F)cc3)cc2-c2ccncc2)CC1 [Example 13, 1-[5-(4-Fluoro-benzoyl)-3-pyridin-4-yl-thiophen-2-yl]-piperidin-4-one] | 46% |
| O=C1CCN(c2sc(C(=O)c3cc(C(F)(F)F)cc(C(F)(F)F)c3)cc2-c2ccncc2)CC1 [Example 14, 1-[5-(3,5-Bis-trifluoromethyl-benzoyl)-3-pyridin-4-yl-thiophen-2-yl]-piperidin-4-one] | 57% |
| COc1ccccc1C(=O)c1cc(-c2ccncc2)c(N2CCC(=O)CC2)s1 [Example 15, 1-[5-(2-Methoxy-benzoyl)-3-pyridin-4-yl-thiophen-2-yl]-piperidin-4-one] | 39% |
| O=C1CCN(c2sc(C(=O)c3ccc(Cl)cc3)cc2-c2ccncc2)CC1 [Example 16, 1-[5-(4-Chloro-benzoyl)-3-pyridin-4-yl-thiophen-2-yl]-piperidin-4-one] | 30% |
| O=C1CCN(c2sc(C(=O)c3ccc([N+](=O)[O-])cc3)cc2-c2ccncc2)CC1 [Example 17, 1-[5-(4-Nitro-benzoyl)-3-pyridin-4-yl-thiophen-2-yl]-piperidi n-4-one] | 30% |
| CCC(=O)c1cc(-c2ccncc2)c(N2CCC(=O)CC2)s1 [Example 18, 1-(5-Propionyl-3-pyridin-4-yl-thiophen-2-yl)-piperidin-4-one] | 26% |
| O=C1CCN(c2sc(C(=O)c3cccc([N+](=O)[O-])c3)cc2-c2ccncc2)CC1 [Example 19] | 29% |
| O=C1CCN(c2sc(C(=O)c3cccc(Br)c3)cc2-c2ccncc2)CC1 [Example 20, 1-[5-(3-Bromo-benzoyl)-3-pyridin-4-yl-thiophen-2-yl]-piperidin-4-one] | 23% |
